Measured values taken from ChEMBL document CHEMBL3885881, “DrugMatrix”.

Species on record: Rattus norvegicus
Assay: DrugMatrix - Regimen: Daily Repeat
Type: toxicity, organism-based, Sprague-Dawley
Parameters: regimen Daily Repeat, gender Male, age 6-8 weeks
Conditions: in vivo, po, route oral GAVAGE, vehicle .5 % CMC; for ABSOLUTE BASOPHIL / ABSOLUTE EOSINOPHIL / ABSOLUTE LYMPHOCYTE / ABSOLUTE MONOCYTE / ABSOLUTE SEGMENTED NEUTROPHIL / BASOPHIL / EOSINOPHIL / ERYTHROCYTE COUNT / HEMATOCRIT / HEMOGLOBIN / LEUKOCYTE COUNT / LYMPHOCYTE / MEAN CORPUSCULAR HEMOGLOBIN / MEAN CORPUSCULAR HEMOGLOBIN CONCENTRATION / MEAN CORPUSCULAR VOLUME / MONOCYTE / NEUTROPHIL / NUCLEATED RED BLOOD CELLS / PLATELET COUNT: tissue Blood; for ALANINE AMINOTRANSFERASE / ALBUMIN / ALKALINE PHOSPHATASE / ASPARTATE AMINOTRANSFERASE / BLOOD UREA NITROGEN / CARBON DIOXIDE / CHLORIDE / CHOLESTEROL / CREATINE PHOSPHOKINASE / CREATININE / GLUCOSE / LACTATE DEHYDROGENASE / LIPASE / PHOSPHORUS / POTASSIUM / SODIUM / TOTAL BILIRUBIN / TOTAL PROTEIN / URIC ACID: tissue Plasma
[1] = 170 mg/kg, 72 h, dose level Low, time 3 day
[2] = 170 mg/kg, 120 h, dose level Low, time 5 day
[3] = 1700 mg/kg, 72 h, dose level High, time 3 day
[4] = 1700 mg/kg, 120 h, dose level High, time 5 day

## O=C(O)c1ccccc1 [BENZOIC ACID]
[1]
  ABSOLUTE BASOPHIL: 0 CELLS/uL
  ABSOLUTE EOSINOPHIL: 0 CELLS/uL
  ABSOLUTE LYMPHOCYTE: 11616 CELLS/uL
  ABSOLUTE MONOCYTE: 0 CELLS/uL
  ABSOLUTE SEGMENTED NEUTROPHIL: 1417.33 CELLS/uL
  BASOPHIL: 0%
  EOSINOPHIL: 0%
  ERYTHROCYTE COUNT: 5.44 x10E6/uL
  HEMATOCRIT: 34.03%
  HEMOGLOBIN: 13.07 G/DL
  LEUKOCYTE COUNT: 13.03 x10E3/uL
  LYMPHOCYTE: 89.33%
  MEAN CORPUSCULAR HEMOGLOBIN: 24.03 pg
  MEAN CORPUSCULAR HEMOGLOBIN CONCENTRATION: 38.4 G/DL
  MEAN CORPUSCULAR VOLUME: 62.6 fL
  MONOCYTE: 0%
  NEUTROPHIL: 10.67%
  NUCLEATED RED BLOOD CELLS: 0 /100WBC
  PLATELET COUNT: 1319.33 x10E3/uL
  ALANINE AMINOTRANSFERASE: 59.67 u/L
  ALBUMIN: 4.13 G/DL
  ALKALINE PHOSPHATASE: 380 u/L
  ASPARTATE AMINOTRANSFERASE: 88 u/L
  BLOOD UREA NITROGEN: 17 mg/dL
  CARBON DIOXIDE: 29.33 mmol/L
  CHLORIDE: 100.67 MEQ/L
  CHOLESTEROL: 99 mg/dL
  CREATINE PHOSPHOKINASE: 286 u/L
  CREATININE: 0.23 mg/dL
  GLUCOSE: 150 mg/dL
  LACTATE DEHYDROGENASE: 280 u/L
  LIPASE: 10 u/L
  PHOSPHORUS: 13.27 mg/dL
  POTASSIUM: 6.52 MEQ/L
  SODIUM: 146.37 MEQ/L
  TOTAL BILIRUBIN: 0.17 mg/dL
  TOTAL PROTEIN: 5.97 G/DL
  URIC ACID: 1.6 mg/dL
[2]
  ABSOLUTE BASOPHIL: 0 CELLS/uL
  ABSOLUTE EOSINOPHIL: 64 CELLS/uL
  ABSOLUTE LYMPHOCYTE: 17040 CELLS/uL
  ABSOLUTE MONOCYTE: 0 CELLS/uL
  ABSOLUTE SEGMENTED NEUTROPHIL: 1696 CELLS/uL
  BASOPHIL: 0%
  EOSINOPHIL: 0.33%
  ERYTHROCYTE COUNT: 5.48 x10E6/uL
  HEMATOCRIT: 35.33%
  HEMOGLOBIN: 13.8 G/DL
  LEUKOCYTE COUNT: 18.8 x10E3/uL
  LYMPHOCYTE: 90.67%
  MEAN CORPUSCULAR HEMOGLOBIN: 25.23 pg
  MEAN CORPUSCULAR HEMOGLOBIN CONCENTRATION: 39.07 G/DL
  MEAN CORPUSCULAR VOLUME: 64.5 fL
  MONOCYTE: 0%
  NEUTROPHIL: 9%
  NUCLEATED RED BLOOD CELLS: 0 /100WBC
  PLATELET COUNT: 1165 x10E3/uL
  ALANINE AMINOTRANSFERASE: 57.33 u/L
  ALBUMIN: 4.23 G/DL
  ALKALINE PHOSPHATASE: 352 u/L
  ASPARTATE AMINOTRANSFERASE: 96.67 u/L
  BLOOD UREA NITROGEN: 15.67 mg/dL
  CARBON DIOXIDE: 24 mmol/L
  CHLORIDE: 103.67 MEQ/L
  CHOLESTEROL: 79 mg/dL
  CREATINE PHOSPHOKINASE: 445 u/L
  CREATININE: 0.21 mg/dL
  GLUCOSE: 164.67 mg/dL
  LACTATE DEHYDROGENASE: 554.67 u/L
  LIPASE: 9.67 u/L
  PHOSPHORUS: 12.87 mg/dL
  POTASSIUM: 6.28 MEQ/L
  SODIUM: 144.9 MEQ/L
  TOTAL BILIRUBIN: 0.23 mg/dL
  TOTAL PROTEIN: 6.17 G/DL
  URIC ACID: 2.2 mg/dL
[3]
  ABSOLUTE BASOPHIL: 0 CELLS/uL
  ABSOLUTE EOSINOPHIL: 95.33 CELLS/uL
  ABSOLUTE LYMPHOCYTE: 13599.67 CELLS/uL
  ABSOLUTE MONOCYTE: 51.33 CELLS/uL
  ABSOLUTE SEGMENTED NEUTROPHIL: 1753.67 CELLS/uL
  BASOPHIL: 0%
  EOSINOPHIL: 0.67%
  ERYTHROCYTE COUNT: 6 x10E6/uL
  HEMATOCRIT: 35.93%
  HEMOGLOBIN: 14.17 G/DL
  LEUKOCYTE COUNT: 15.5 x10E3/uL
  LYMPHOCYTE: 87.67%
  MEAN CORPUSCULAR HEMOGLOBIN: 23.6 pg
  MEAN CORPUSCULAR HEMOGLOBIN CONCENTRATION: 39.43 G/DL
  MEAN CORPUSCULAR VOLUME: 59.9 fL
  MONOCYTE: 0.33%
  NEUTROPHIL: 11.33%
  NUCLEATED RED BLOOD CELLS: 0 /100WBC
  PLATELET COUNT: 1304 x10E3/uL
  ALANINE AMINOTRANSFERASE: 84.67 u/L
  ALBUMIN: 4.3 G/DL
  ALKALINE PHOSPHATASE: 341.67 u/L
  ASPARTATE AMINOTRANSFERASE: 125.33 u/L
  BLOOD UREA NITROGEN: 16 mg/dL
  CARBON DIOXIDE: 30.67 mmol/L
  CHLORIDE: 97.33 MEQ/L
  CHOLESTEROL: 63.67 mg/dL
  CREATINE PHOSPHOKINASE: 240.33 u/L
  CREATININE: 0.2 mg/dL
  GLUCOSE: 149 mg/dL
  LACTATE DEHYDROGENASE: 314.33 u/L
  LIPASE: 9.33 u/L
  PHOSPHORUS: 13.87 mg/dL
  POTASSIUM: 6.31 MEQ/L
  SODIUM: 144.83 MEQ/L
  TOTAL BILIRUBIN: 0.23 mg/dL
  TOTAL PROTEIN: 5.73 G/DL
  URIC ACID: 1.6 mg/dL
[4]
  ABSOLUTE BASOPHIL: 0 CELLS/uL
  ABSOLUTE EOSINOPHIL: 54.33 CELLS/uL
  ABSOLUTE LYMPHOCYTE: 15272.67 CELLS/uL
  ABSOLUTE MONOCYTE: 230 CELLS/uL
  ABSOLUTE SEGMENTED NEUTROPHIL: 2109.67 CELLS/uL
  BASOPHIL: 0%
  EOSINOPHIL: 0.33%
  ERYTHROCYTE COUNT: 5.71 x10E6/uL
  HEMATOCRIT: 34.87%
  HEMOGLOBIN: 14.07 G/DL
  LEUKOCYTE COUNT: 17.67 x10E3/uL
  LYMPHOCYTE: 86.33%
  MEAN CORPUSCULAR HEMOGLOBIN: 24.67 pg
  MEAN CORPUSCULAR HEMOGLOBIN CONCENTRATION: 40.33 G/DL
  MEAN CORPUSCULAR VOLUME: 61.07 fL
  MONOCYTE: 1.33%
  NEUTROPHIL: 12%
  NUCLEATED RED BLOOD CELLS: 0 /100WBC
  PLATELET COUNT: 1192 x10E3/uL
  ALANINE AMINOTRANSFERASE: 71 u/L
  ALBUMIN: 4.37 G/DL
  ALKALINE PHOSPHATASE: 303 u/L
  ASPARTATE AMINOTRANSFERASE: 113.33 u/L
  BLOOD UREA NITROGEN: 18.67 mg/dL
  CARBON DIOXIDE: 27.67 mmol/L
  CHLORIDE: 103.33 MEQ/L
  CHOLESTEROL: 67.33 mg/dL
  CREATINE PHOSPHOKINASE: 298.67 u/L
  CREATININE: 0.19 mg/dL
  GLUCOSE: 164.33 mg/dL
  LACTATE DEHYDROGENASE: 269.33 u/L
  LIPASE: 10 u/L
  PHOSPHORUS: 14 mg/dL
  POTASSIUM: 6.25 MEQ/L
  SODIUM: 149.6 MEQ/L
  TOTAL BILIRUBIN: 0.2 mg/dL
  TOTAL PROTEIN: 5.8 G/DL
  URIC ACID: 1.67 mg/dL
